From patent US9284325B2, “Spectinamides as anti-tuberculosis agents” (UNIVERSITY OF TENNESSEE RESEARCH FOUNDATION, priority 2009, dated 2016)
Counter-ions that a name gives are not always drawn. Like-named read-outs stand apart in the source and are kept apart here.

Columns and labels:
[1] = system: Strenotrophomonas maltophilia ATCC 13637; assay: MIC determination by microbroth dilution; assay type: cell-based
[2] = system: Burkholderia cepacia ATCC 25416; assay: MIC determination by microbroth dilution; assay type: cell-based; settings: for MIC: ATCC25416, read-out: MIC B. cepcia
[3] = system: Strep. pyogenes ATCC 700294; assay: MIC determination by microbroth dilution; assay type: cell-based, Streptococcus pyogenes; settings: for MIC: Streptococcus pyogenes, ATCC700294, read-out: MIC S. pyogenes
E. coli K12 ΔtolC = assay: microbe, parasite or virus in culture; assay type: cell-based; settings: for MIC: Escherichia coli, read-out: MIC E. coli K12 ΔtolC
[4] = system: Proteus mirabilis ATCC 25933; assay: MIC determination by microbroth dilution; assay type: cell-based; settings: for MIC: ATCC25933
P. aeruginosa PAO1 = assay: MIC determination by microbroth dilution; assay type: cell-based, Pseudomonas aeruginosa; settings: for MIC: Pseudomonas aeruginosa
M. tuberculosis H37Rv = assay: MIC determination by microbroth dilution, anti-tuberculosis activity; assay type: cell-based, Mycobacterium tuberculosis
E. faecalis ATCC 33186 = assay: MIC determination by microbroth dilution; assay type: cell-based, Enterococcus faecalis; settings: for MIC: Enterococcus faecalis, ATCC33186
[5] = system: S. aureus 8325 or strain ATCC 29213; assay: MIC determination by microbroth dilution; assay type: cell-based, Staphylococcus aureus; settings: S. aureus 8325 or strain ATCC 29213 (for 1471-1544); for MIC: Staphylococcus aureus, ATCC29213
[6] = system: Acinetobacter baumannii ATCC 19606; assay: MIC determination by microbroth dilution; assay type: cell-based; settings: for MIC: ATCC19606
E. coli K12 = assay: MIC determination by microbroth dilution; assay type: cell-based, Escherichia coli; settings: for MIC: Escherichia coli, K12
E. coli ribosomes = assay type: biochemical; settings: for IC50, 50% inhibition of luciferase biosynthesis in S30 assay: E. coli S30 transcription/translation assay; for relative inhibitory activity on luciferase production: tested at 0.66 and 6.6 μM, FIG. 5
[7] = system: Klebsiella pneumoniae ATCC 33495; assay: MIC determination by microbroth dilution; assay type: cell-based; settings: for MIC: ATCC33495
B. anthracis Sterne 34F2 = assay: microbe, parasite or virus in culture; assay type: cell-based, Bacillus anthracis; settings: for MIC: Bacillus anthracis, STERNE34F2, read-out: MIC B. anthracis 34F2
[8] = system: Strep. pneumoniae DAW27 or strain R6; assay: MIC determination by microbroth dilution; assay type: cell-based, Streptococcus pneumoniae; settings: Strep. pneumoniae DAW27 or strain R6 (for 1443-1544); for MIC: Streptococcus pneumoniae, read-out: MIC S. pneumoniae
[9] = system: Proteus vulgaris ATCC 33420; assay: MIC determination by microbroth dilution; assay type: cell-based; settings: for MIC: ATCC33420
[10] = Mycobacterium tuberculosis, H37RV, 168 h, read-out: MIC

Molecule | MIC [1] | MIC [2] | MIC [3] | MIC (E. coli K12 ΔtolC) | MIC [4] | MIC (P. aeruginosa PAO1) | MIC (M. tuberculosis H37Rv; [10]) | MIC (E. faecalis ATCC 33186) | MIC [5] | MIC [6] | MIC (E. coli K12) | IC50, 50% inhibition of luciferase biosynthesis in S30 assay (E. coli ribosomes) | relative inhibitory activity on luciferase production (E. coli ribosomes) | MIC [7] | MIC (B. anthracis Sterne 34F2) | MIC [8] | MIC [9] | also measured
CN[C@@H]1[C@H](O)[C@H](NC)C2O[C@]3(O)C(OC2[C@H]1O)O[C@H](C)C[C@H]3NC(=O)c1ccccn1 (stereo partly drawn) [Compound 1370, 3′-Dihydro-3′-deoxy-4(R)-pyridin-2-carboxylicamino spectinomycin Dihydrochloride] | > 200 µg/mL | > 200 µg/mL | > 200 µg/mL | 100 µg/mL | > 200 µg/mL | > 200 µg/mL | 100 µg/mL | > 200 µg/mL | > 200 µg/mL | > 200 µg/mL | 200 µg/mL | 0.89 µg/mL | less active than 1329 | > 200 µg/mL | 50 µg/mL | > 200 µg/mL | > 200 µg/mL | 
3′-Dihydro-3′-deoxy-4(R)-dodecylamino spectinomycin Trihydrochloride [Compound 1421] |  |  |  |  |  |  |  |  |  |  |  |  | less active than 1329 |  |  |  |  | MIC S. mal [1]: 12.5 µg/mL; MIC B. cepcia [2]: 50 µg/mL; MIC S. pyogenes [3]: 50 µg/mL; MIC E. coli K12 ΔtolC (E. coli K12 ΔtolC; tolC knockout strain, defective multi-drug efflux pump): 50 µg/mL; MIC P. mir [4]: >200 µg/mL; MIC P. aer. (P. aeruginosa PAO1): >200 µg/mL; MIC (M. tuberculosis H37Rv): 25 µg/mL; MIC E. faecalis (E. faecalis ATCC 33186): 200 µg/mL; MIC S. aureus [5]: 200 µg/mL; MIC A. bau. [6]: 50 µg/mL; MIC E. coli K12 (E. coli K12; E. coli K12): 200 µg/mL; MIC K. pneu. [7]: >200 µg/mL; MIC B. anthracis 34F2 (B. anthracis Sterne 34F2): 200 µg/mL; MIC S. pneumoniae [8]: 200 µg/mL; MIC P. vul [9]: >200 µg/mL
CN[C@@H]1[C@H](O)[C@H](NC)C2O[C@]3(O)C(OC2[C@H]1O)O[C@H](C)C[C@H]3NC(=O)Cc1ccccc1OC (stereo partly drawn) [Compound 1448, 3′-Dihydro-3′-deoxy-4(R)-(2-methoxy-phenyl)acetylamino spectinomycin Dihydrochloride] | > 200 µg/mL | 200 µg/mL | 25 µg/mL | > 200 µg/mL | > 200 µg/mL | > 200 µg/mL | 200 µg/mL | > 200 µg/mL | > 200 µg/mL | > 200 µg/mL | > 200 µg/mL | 2.41 µg/mL |  | > 200 µg/mL | > 200 µg/mL | 25 µg/mL | > 200 µg/mL | 
CN[C@@H]1[C@H](O)[C@H](NC)C2O[C@]3(O)C(OC2[C@H]1O)O[C@H](C)C[C@H]3NC(=O)Cc1cccc(F)c1F (stereo partly drawn) [Compound 1447, 3′-Dihydro-3′-deoxy-4(R)-(2,3-difluoro-phenyl)acetylamino spectinomycin Dihydrochloride] | > 200 µg/mL | > 200 µg/mL | 6.25 µg/mL | > 200 µg/mL | > 200 µg/mL | > 200 µg/mL | 50 µg/mL | 100 µg/mL | > 200 µg/mL | > 200 µg/mL | 200 µg/mL | 0.22 µg/mL |  | 200 µg/mL | 100 µg/mL | 6.25 µg/mL | > 200 µg/mL | 
CN[C@@H]1[C@H](O)[C@H](NC)C2O[C@]3(O)C(OC2[C@H]1O)O[C@H](C)C[C@H]3NC(=O)Cc1ncccn1 (stereo partly drawn) [Compound 1439, 3′-Dihydro-3′-deoxy-4(R)-(pyrimidin-2yl)acetylamino spectinomycin Dihydrochloride] | > 200 µg/mL | > 200 µg/mL | > 200 µg/mL | 12.5 µg/mL | > 200 µg/mL | 50 µg/mL | > 200 µg/mL | 50 µg/mL | 25 µg/mL | > 200 µg/mL | 100 µg/mL | 2.63 µg/mL | less active than 1329 | > 200 µg/mL | 50 µg/mL | 12.5 µg/mL | > 200 µg/mL | 
CN[C@@H]1[C@H](O)[C@H](NC)C2O[C@]3(O)C(OC2[C@H]1O)O[C@H](C)C[C@H]3NC(=O)Cc1csc(N)n1 (stereo partly drawn) [Compound 1444, 3′-Dihydro-3′-deoxy-4(R)-(2-aminothiazol-4-yl)acetylamino spectinomycin trihydrobromide] | > 200 µg/mL | > 200 µg/mL | 25 µg/mL | 200 µg/mL | > 200 µg/mL | > 200 µg/mL | 3.1 µg/mL | 50 µg/mL | 100 µg/mL | > 200 µg/mL | 100 µg/mL | 0.12 µg/mL |  | 100 µg/mL | 6.25 µg/mL | 25 µg/mL | > 200 µg/mL | 
CN[C@@H]1[C@H](O)[C@H](NC)C2O[C@]3(O)C(OC2[C@H]1O)O[C@H](C)C[C@H]3NC(=O)c1cnccn1 (stereo partly drawn) [Compound 1453, 3′-Dihydro-3′-deoxy-4(R)-(pyrazine-2-yl)carboxylicamino spectinomycin tetrahydrobromide] | > 200 µg/mL | > 200 µg/mL | 25 µg/mL | 200 µg/mL | > 200 µg/mL | > 200 µg/mL | > 200 µg/mL | > 200 µg/mL | > 200 µg/mL | > 200 µg/mL | > 200 µg/mL | 1.04 µg/mL |  | > 200 µg/mL | > 200 µg/mL | 25 µg/mL | > 200 µg/mL | 
CN[C@@H]1[C@H](O)[C@H](NC)C2O[C@]3(O)C(OC2[C@H]1O)O[C@H](C)C[C@H]3NC(=O)Cc1ccncc1 (stereo partly drawn) [Compound 1413, 3′-Dihydro-3′-deoxy-4(R)-(pyridin-4-yl)acetylamino spectinomycin Dihydrochloride] | > 200 µg/mL | > 200 µg/mL | 200 µg/mL | 50 µg/mL | > 200 µg/mL | > 200 µg/mL | 100 µg/mL | > 200 µg/mL | 50 µg/mL | > 200 µg/mL | 200 µg/mL | 1.92 µg/mL |  | > 200 µg/mL | 200 µg/mL | > 200 µg/mL | > 200 µg/mL | 
CN[C@@H]1[C@H](O)[C@H](NC)C2O[C@]3(O)C(OC2[C@H]1O)O[C@H](C)C[C@H]3NCc1ccco1 (stereo partly drawn) [Compound 1422, 3′-Dihydro-3′-deoxy-4(R)-furan-2yl-methylamino spectinomycin Trihydrochloride] | > 200 µg/mL | > 200 µg/mL | 200 µg/mL | 12.5 µg/mL | > 200 µg/mL | 25 µg/mL | 200 µg/mL | 12.5 µg/mL | 25 µg/mL | > 200 µg/mL | 25 µg/mL |  | inhibited well | > 200 µg/mL | 12.5 µg/mL | 50 µg/mL | > 200 µg/mL | 
